According to patent publication US11365195B2, “Atypical inhibitors of monoamine transporters; method of making; and use thereof” (THE UNITED STATES OF AMERICA, AS REPRESENTED BY THE …, priority 2017, dated 2022):
Where two headings read alike, the source gives them in different places.

Key:
DAT = target: T1, DAT (Rattus norvegicus, UniProt P23977); experiment: DAT radioligand binding in rat striatum ([3H]-WIN35,428 competition); conditions: for SERT/DAT: ratio of SERT Ki to DAT Ki
T1 construct: 100 μl of tissue preparation (1.5 mg of brain striatum membranes per well); tissue Bioreclamation IVT (Hicksville, N.Y.); host or cells: male Sprague-Dawley rat brain striatum membranes
T1 sequence (P23977 whole entry): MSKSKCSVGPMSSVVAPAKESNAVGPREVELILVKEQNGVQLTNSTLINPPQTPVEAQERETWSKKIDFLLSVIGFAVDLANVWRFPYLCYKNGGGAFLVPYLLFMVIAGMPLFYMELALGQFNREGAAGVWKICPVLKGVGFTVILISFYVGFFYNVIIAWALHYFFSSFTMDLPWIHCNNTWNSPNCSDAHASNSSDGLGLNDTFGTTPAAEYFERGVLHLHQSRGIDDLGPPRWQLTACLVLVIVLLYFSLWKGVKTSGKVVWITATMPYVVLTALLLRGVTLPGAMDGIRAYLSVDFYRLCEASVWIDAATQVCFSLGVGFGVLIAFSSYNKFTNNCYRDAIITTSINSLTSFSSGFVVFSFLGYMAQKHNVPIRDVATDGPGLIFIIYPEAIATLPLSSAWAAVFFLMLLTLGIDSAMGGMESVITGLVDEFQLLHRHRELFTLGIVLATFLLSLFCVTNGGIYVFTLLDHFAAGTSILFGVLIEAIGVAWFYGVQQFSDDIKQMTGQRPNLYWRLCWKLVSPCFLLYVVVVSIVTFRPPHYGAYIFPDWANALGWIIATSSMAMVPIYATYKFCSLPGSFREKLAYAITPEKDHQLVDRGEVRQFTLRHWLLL
Method: (§1) Binding affinities of the analogue compounds were evaluated at the DAT and SERT in rat brain membranes, and sigma-1 in guinea pig brain membranes according to the following protocols.
DAT Radioligand Binding in Rat Striatum
The tissue was centrifuged at 20,000 rpm for 10 min at 4° C. The pellet was suspended in cold buffer and centrifuged again using the same settings. The resulting pellet was resuspended in cold buffer at a concentration of 15 mg/mL OWW (original wet weight). On test day, all test compounds were freshly dissolved in 30% DMSO and 70% H2O to a stock concentration of 1 mM or 100 μM When necessary, to assist the solubilization of compounds, 10 μl of glacial acetic acid was added along with the DMSO (in place of 10 μl final H2O volume). Each test compound was then diluted into 10 half-log serial dilutions using 30% DMSO vehicle. […] Non-specific binding was determined using […] Indatraline and total binding was determined with 30% DMSO vehicle. The reaction was started with the addition of the tissue. […] The filters were washed 3 times with 3 mL (3×1 mL/well) of ice cold binding buffer. […] These analyses were performed using GraphPad Prism version 6.00 for Macintosh (GraphPad Software, San Diego, Calif.).

SERT = target: T2, SERT (Rattus norvegicus, UniProt P31652); experiment: SERT radioligand binding in rat midbrain ([3H]-Citalopram competition); conditions: rat midbrain/brain stem membranes, [3H]-Citalopram, mean ± SEM; read-out: SERT (rat mid-brain-stem) Ki ± SEM
T2 construct: 100 μl of tissue preparation (2 mg of brain stem membranes per well); tissue Bioreclamation IVT (Hicksville, N.Y.); host or cells: male Sprague-Dawley rat brain stem membranes
T2 sequence (P31652 whole entry): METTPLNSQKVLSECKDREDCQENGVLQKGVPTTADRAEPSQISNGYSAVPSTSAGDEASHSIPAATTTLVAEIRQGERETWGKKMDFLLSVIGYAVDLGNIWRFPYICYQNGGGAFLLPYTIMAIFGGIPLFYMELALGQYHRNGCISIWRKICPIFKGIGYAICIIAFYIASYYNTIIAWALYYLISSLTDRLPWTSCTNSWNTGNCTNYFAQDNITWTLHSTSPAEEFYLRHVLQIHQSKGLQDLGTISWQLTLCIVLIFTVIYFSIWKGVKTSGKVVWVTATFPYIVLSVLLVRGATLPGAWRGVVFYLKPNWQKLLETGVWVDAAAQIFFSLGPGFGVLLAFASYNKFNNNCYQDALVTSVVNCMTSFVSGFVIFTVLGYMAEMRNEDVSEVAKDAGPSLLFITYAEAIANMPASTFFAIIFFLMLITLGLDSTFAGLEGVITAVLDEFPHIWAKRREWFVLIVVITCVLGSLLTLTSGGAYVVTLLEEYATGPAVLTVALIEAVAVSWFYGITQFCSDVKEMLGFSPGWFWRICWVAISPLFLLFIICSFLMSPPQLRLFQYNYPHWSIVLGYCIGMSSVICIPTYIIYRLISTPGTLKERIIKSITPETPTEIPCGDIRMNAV
Method: as §1
SERT Radioligand Binding in Rat Midbrain
The tissue was centrifuged at 20,000 rpm for 10 min at 4° C. The pellet was suspended in cold buffer and centrifuged again using the same settings. The resulting pellet was resuspended in cold buffer at a concentration of 20 mg/mL OWW (original wet weight). On test day, all test compounds were freshly dissolved in 30% DMSO and 70% H2O to a stock concentration of 1 mM or 100 μM. When necessary, to assist the solubilization of compounds, 10 μl of glacial acetic acid was added along with the DMSO (in place of 10 μl final H2O volume). Each test compound was then diluted into 10 half-log serial dilutions using 30% DMSO vehicle. […] Non-specific binding was determined using […] Fluoxetine HCl and total binding was determined with 30% DMSO vehicle. The reaction was started with the addition of the tissue. All compound dilutions were tested in triplicate and the reaction incubated for 60 min at room temperature. The reaction was terminated by filtration through Perkin Elmer Uni-Filter-96 GF/B, presoaked for 60 min in 0.3% polyethylenimine, using a Brandel 96-Well Plates Harvester Manifold (Brandel Instruments, Gaithersburg, Md.). The filters were washed 3 times with 3 mL (3×1 mL/well) of ice cold binding buffer. […] These analyses were performed using GraphPad Prism version 6.00 for Macintosh (GraphPad Software, San Diego, Calif.).

[1] = Phase I metabolic stability in rat liver microsomes; format: in vitro ADME; conditions: for Phase I in Liver Microsomes, Negative Control: rat liver microsomes lacking NADPH; for Phase I in Liver Microsomes, Rat: with NADPH, 10 μM compound, 0.5 mg/mL microsomes
Method: Methods: Phase I metabolic stability assays were conducted in rat liver microsomes. For phase I metabolism, the reactions were carried out with 100 mM potassium phosphate buffer, pH 7.4, in the presence of NADPH regenerating system (1.3 mM NADPH, 3.3 mM glucose 6-phosphate, 3.3 mM MgCl2, 0.4 U/mL glucose-6-phosphate dehydrogenase, […] sodium citrate). Reactions in triplicate were initiated by addition of the liver microsomes to the incubation mixture (compound final concentration was 10 μM; 0.5 mg/mL microsomes). Compound disappearance was monitored via LC/MS/MS. […] The total run time for each analyte was 5.0 min.

σ1R = target: T3, σ1R (Cavia porcellus, UniProt Q60492); experiment: σ1R radioligand binding in guinea pig cortex ([3H]-(+)-Pentazocine competition); conditions: for σ1/DAT: ratio of σ1 to DAT affinity values; for σ1/SERT: ratio of σ1 to SERT affinity values
T3 construct: tissue BioReclamation IVT (Hicksville, N.Y.); host or cells: male Hartley guinea pig brain cortex membranes
T3 sequence (Q60492 whole entry): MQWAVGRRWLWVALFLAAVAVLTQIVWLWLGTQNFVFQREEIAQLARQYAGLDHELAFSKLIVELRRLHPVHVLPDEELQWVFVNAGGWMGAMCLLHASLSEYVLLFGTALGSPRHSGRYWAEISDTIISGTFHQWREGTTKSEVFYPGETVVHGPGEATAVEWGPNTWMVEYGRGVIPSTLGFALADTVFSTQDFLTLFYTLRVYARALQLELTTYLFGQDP
Method: as §1
σ1R Radioligand Binding in Guinea Pig Cortex
Male Hartley guinea pig cortices were dissected from freshly harvested brains (shipped cold in PBS buffer from BioReclamation IVT (Hicksville, N.Y.)) and frozen at −80° C. for future use. […] The supernatant was collected in a clean tube and the pellet re-suspended in 10 ml of cold buffer and centrifuged again (˜1,200 rpm) for 10 min at 4° C. […] The final pellet was suspended in ice-cold binding buffer at 50 mg/ml concentration. […] All test compounds were freshly dissolved in 30% DMSO and 70% H2O to a stock concentration of 1 mM or 100 μM. When necessary, to assist the solubilization of compounds, 10 μl of glacial acetic acid was added along with the DMSO (in place of 10 μl final H2O volume). Each test compound was then diluted into 10 half-log serial dilutions using 30% DMSO as the vehicle. […] Nonspecific binding was determined using either 10 μM PRE084 or 10 μM (+)-Pentazocine and total binding was determined with 30% DMSO vehicle (3% DMSO final concentration). […] The filters were washed 3 times with 3 ml (3×1 ml/well) of ice cold binding buffer.

[2] = rat striatum membranes, [3H]-WIN35,428, mean ± SEM, read-out: DAT (rat striatum) Ki ± SEM

| SMILES | Ki (DAT; [2]) [nM] | SERT/DAT (DAT) | Ki (SERT) [nM] | Phase I in Liver Microsomes, Negative Control ([1]; 0 min) [%] | Phase I in Liver Microsomes, Rat ([1]; 0 min) [%] | Phase I in Liver Microsomes, Rat ([1]; 30 min) [%] | Phase I in Liver Microsomes, Negative Control ([1]; 60 min) [%] | Phase I in Liver Microsomes, Rat ([1]; 60 min) [%] | σ1/DAT (σ1R) | σ1/SERT (σ1R) | Ki (DAT) [nM] | stability to Phase I metabolism (in words) ([1]; rat liver microsomes fortified with NADPH) | Phase I in Liver Microsomes, Negative Control ([1]; 30 min) [%] |
| --- | --- | --- | --- | --- | --- | --- | --- | --- | --- | --- | --- | --- | --- |
| Cl.Cl.OC(CNC1CCN(CCSC(c2ccc(F)cc2)c2ccc(F)cc2)CC1)Cc1ccccc1 (stereo not drawn) [JBG01-061, 1-((1-(2-((Bis(4-fluorophenyl)methyl)thio)ethyl)piperidin-4-yl)amino)-3-phenylpropan-2-ol] | 47.7 ± 2.62 | 1.39 | 66.3 ± 2.81 | 100 | 100 | 83 | 109 | 69 | 1.84 | 1.33 | – | – | – |
| Cl.Cl.Fc1ccc(CN2CCC(NCCSC(c3ccc(F)cc3)c3ccc(F)cc3)CC2)cc1 [JBG01-077, N-(2-((Bis(4-fluorophenyl)methyl)thio)ethyl)-1-(4-fluorobenzyl)piperidin-4-amine] | 25.5 ± 6.95 | 10.86 | 277 ± 5.94 | 100 | 100 | 88 | 111 | 70 | 0.52 | 0.048 | – | – | – |
| O=C(c1ccc(F)cc1)N1CCC(NCCSC(c2ccc(F)cc2)c2ccc(F)cc2)CC1 [JBG02-028, (4-((2-((Bis(4-fluorophenyl)methyl)thio)ethyl)amino)piperidin-1-yl)(4-fluorophenyl)methanone] | – | 66.99 | 485 ± 32 | 100 | 100 | 40 | 101 | 24 | 4.43 | 0.066 | 7.24 ± 0.78 | susceptibility | – |
| Cl.Cl.[O-][S+](CCNC1CCN(Cc2ccc(F)cc2)CC1)C(c1ccc(F)cc1)c1ccc(F)cc1 (stereo not drawn) [JBG02-054, N-(2-((Bis(4-fluorophenyl)methyl)sulfinyl)ethyl)-1-(4-fluorobenzyl)piperidin-4-amine] | 50.6 ± 11.2 | 7.31 | 370 ± 23.7 | 100 | 100 | 100 | 102 | 95 | 0.52 | 0.072 | – | – | 102 |
| CC(C)(C)C(=O)N1CCC(NCC[S+]([O-])C(c2ccc(F)cc2)c2ccc(F)cc2)CC1 (stereo not drawn) [JBG02-072, 1-(4-((2-((Bis(4-fluorophenyl)methyl)sulfinyl)ethyl)amino)piperidin-1-yl)-2,2-dimethylpropan-1-one] | 10200 ± 3610 | 3.14 | 32000 ± 6760 | – | – | – | – | – | 1.10 | – | – | – | – |
| CC(C)(C)CN1CCC(NCC[S+]([O-])C(c2ccc(F)cc2)c2ccc(F)cc2)CC1 (stereo not drawn) [JBG02-074, N-(2-((Bis(4-fluorophenyl)methyl)sulfinyl)ethyl)-1-neopentylpiperidin-4-amine] | 431 ± 28.2 | 16.22 | 6990 ± 229 | – | – | – | – | – | 1.26 | – | – | – | – |
| Fc1ccc(C(SCCNC2CCN(CC3CC3)CC2)c2ccc(F)cc2)cc1 [JBG02-080, N-(2-((bis(4-fluorophenyl)methyl)thio)ethyl)-1-(cyclopropylmethyl)piperidin-4-amine] | 407 ± 65 | 3.93 | 1600 ± 164 | – | – | – | – | – | 0.66 | – | – | – | – |
| O=C(C1CC1)N1CCC(NCCSC(c2ccc(F)cc2)c2ccc(F)cc2)CC1 [JBG02-083, (4-((2-((bis(4-fluorophenyl)methyl)thio)ethyl)amino)piperidin-1-yl)(cyclopropyl)methanone] | 178 ± 35 | 5.67 | 1010 ± 94 | – | – | – | – | – | 0.26 | – | – | – | – |
| CC(O)CN1CCC2(CCN(CC[S+]([O-])C(c3ccc(F)cc3)c3ccc(F)cc3)CC2)C1 (stereo not drawn) [RDS04-014] | 449 ± 120 | 1.37 | 617 ± 54.8 | – | – | – | – | – | 0.14 | 0.11 | – | – | – |
